Usually MIC80 stands for an inhibitory concentration at the 80% level, which refers to growth in some studies and to a panel of isolates in others.

Values after ≈ are worked out from the molar mass of the structure shown.

What all share (format): functional
Experiment [1] relates to Pichia kudriavzevii. Put plainly: Antifungal activity against Candida krusei GIM 2.1 assessed as inhibition of fungal growth by CLSI M27-A3 guidelines based method.
In experiment [2] the test system is Cryptococcus neoformans. Put plainly: Antifungal activity against Cryptococcus neoformans CGMCC 2.3161 assessed as inhibition of fungal growth by CLSI M27-A3 guidelines based method.
Experiment [3] deals with Candida parapsilosis. Put plainly: Antifungal activity against Candida parapsilosis GIM 2.190 assessed as inhibition of fungal growth by CLSI M27-A3 guidelines based method. To be noted: Lodderomyces parapsilosis.
For experiment [4], the system named is Candida tropicalis. Put plainly: Antifungal activity against Candida tropicalis GIM 2.183 assessed as inhibition of fungal growth by CLSI M27-A3 guidelines based method.
The test system of experiment [5] is Candida albicans. Put plainly: Antifungal activity against Candida albicans GIM 2.194 assessed as inhibition of fungal growth by CLSI M27-A3 guidelines based method.
The test system of experiment [6] is Nakaseomyces glabratus. Put plainly: Antifungal activity against Candida glabrata assessed as inhibition of fungal growth by CLSI M27-A3 guidelines based method.
Experiment [7] concerns Candida albicans. Put plainly: Antifungal activity against Candida albicans SC5314 assessed as inhibition of fungal growth by CLSI M27-A3 guidelines based method.

As for `Cc1ccc(CN2CCN(c3ccc(CN(C)CC(O)(Cn4cncn4)c4ccc(F)cc4F)cc3)CC2)cc1` (stereo not drawn), the MIC80 in experiment [1] amounted to 0.8 µg/mL (≈ 1.46 µM); in experiment [2] it was 3.2 µg/mL (≈ 5.85 µM); in experiment [3], 0.4 µg/mL (≈ 0.732 µM); in experiment [4], 0.2 µg/mL (≈ 0.366 µM); in experiment [5], 0.2 µg/mL (≈ 0.366 µM); in experiment [6], 1.6 µg/mL (≈ 2.93 µM). Further, the MIC80 in experiment [7] was 0.2 µg/mL (≈ 0.366 µM).
With `CN(Cc1ccc(N2CCN(Cc3ccc(I)cc3)CC2)cc1)CC(O)(Cn1cncn1)c1ccc(F)cc1F` (stereo not drawn), the MIC80 was determined as 0.1 µg/mL (≈ 0.152 µM) in experiment [1]; 0.1 µg/mL (≈ 0.152 µM) in experiment [2]; 0.1 µg/mL (≈ 0.152 µM) in experiment [3]; 0.05 µg/mL (≈ 0.0759 µM) in experiment [4]; 0.013 µg/mL (≈ 0.0197 µM) in experiment [5]; 0.2 µg/mL (≈ 0.304 µM) in experiment [6]. Moreover, the MIC80 in experiment [7] is 0.025 µg/mL (≈ 0.038 µM).
As for `CN(Cc1ccc(N2CCN(Cc3cccc(I)c3)CC2)cc1)CC(O)(Cn1cncn1)c1ccc(F)cc1F` (stereo not drawn), the MIC80 in experiment [1] is 0.2 µg/mL (≈ 0.304 µM); in experiment [3], 0.025 µg/mL (≈ 0.038 µM); in experiment [4], 0.013 µg/mL (≈ 0.0197 µM); in experiment [5] it was 0.025 µg/mL (≈ 0.038 µM); in experiment [6], 0.4 µg/mL (≈ 0.607 µM); in experiment [7], 0.25 µg/mL (≈ 0.38 µM).
Take `C#Cc1ccc(CN2CCN(c3ccc(CN(C)CC(O)(Cn4cncn4)c4ccc(F)cc4F)cc3)CC2)cc1` (stereo not drawn): the MIC80 is 3.2 µg/mL (≈ 5.75 µM) in experiment [1]; 3.2 µg/mL (≈ 5.75 µM) in experiment [2]; 0.4 µg/mL (≈ 0.719 µM) in experiment [3]; 0.1 µg/mL (≈ 0.18 µM) in experiment [4]; 0.2 µg/mL (≈ 0.359 µM) in experiment [5]; 3.2 µg/mL (≈ 5.75 µM) in experiment [6]. Also, the MIC80 in experiment [7] came out at 0.1 µg/mL (≈ 0.18 µM).
For `CN(Cc1ccc(N2CCN(C(=O)c3ccccc3)CC2)cc1)CC(O)(Cn1cncn1)c1ccc(F)cc1F` (stereo not drawn), the MIC80 was determined as 1.6 µg/mL (≈ 2.93 µM) in experiment [1]; 0.4 µg/mL (≈ 0.732 µM) in experiment [2]; 0.025 µg/mL (≈ 0.0457 µM) in experiment [3]; 0.013 µg/mL (≈ 0.0238 µM) in experiment [4]; 0.013 µg/mL (≈ 0.0238 µM) in experiment [5]; 1.6 µg/mL (≈ 2.93 µM) in experiment [6]. For the same compound, the MIC80 in experiment [7] stood at 0.025 µg/mL (≈ 0.0457 µM).
Consider `CC(C)N1CCN(c2ccc(CN(C)CC(O)(Cn3cncn3)c3ccc(F)cc3F)cc2)CC1` (stereo not drawn), for which the MIC80 in experiment [1] is over 32 µg/mL; in experiment [2] it was over 32 µg/mL; in experiment [3] it was 4 µg/mL (≈ 8.25 µM); in experiment [4], 2 µg/mL (≈ 4.13 µM); in experiment [5] it was 8 µg/mL (≈ 16.5 µM); in experiment [6] it was over 32 µg/mL. In addition, in experiment [7], the MIC80 came out at 4 µg/mL (≈ 8.25 µM).
Regarding `CN(Cc1ccc(N2CCN(C(=O)C3CC3)CC2)cc1)CC(O)(Cn1cncn1)c1ccc(F)cc1F` (stereo not drawn), the MIC80 in experiment [1] worked out at 32 µg/mL (≈ 62.7 µM); in experiment [2] it was 16 µg/mL (≈ 31.3 µM); in experiment [3], 0.5 µg/mL (≈ 0.979 µM); in experiment [4], 1 µg/mL (≈ 1.96 µM); in experiment [5] it was 1 µg/mL (≈ 1.96 µM); in experiment [6] it was 32 µg/mL (≈ 62.7 µM). In addition, the MIC80 in experiment [7] turned out to be 0.25 µg/mL (≈ 0.49 µM).
With `CN(Cc1ccc(N2CCN(Cc3c(Br)cccc3Br)CC2)cc1)CC(O)(Cn1cncn1)c1ccc(F)cc1F` (stereo not drawn), the MIC80 was 0.1 µg/mL (≈ 0.145 µM) in experiment [1]; 0.006 µg/mL (≈ 0.00869 µM) in experiment [3]; 0.006 µg/mL (≈ 0.00869 µM) in experiment [4]; 0.006 µg/mL (≈ 0.00869 µM) in experiment [5]; 0.1 µg/mL (≈ 0.145 µM) in experiment [6]; 0.013 µg/mL (≈ 0.0188 µM) in experiment [7].
For `CN(Cc1ccc(N2CCN(Cc3cc(Cl)ccc3Br)CC2)cc1)CC(O)(Cn1cncn1)c1ccc(F)cc1F` (stereo not drawn), the MIC80 came to 0.2 µg/mL (≈ 0.31 µM) in experiment [1]; 0.1 µg/mL (≈ 0.155 µM) in experiment [2]; 0.006 µg/mL (≈ 0.00929 µM) in experiment [3]; 0.006 µg/mL (≈ 0.00929 µM) in experiment [4]; 0.013 µg/mL (≈ 0.0201 µM) in experiment [5]; 0.2 µg/mL (≈ 0.31 µM) in experiment [6]. The MIC80 in experiment [7] worked out at 0.013 µg/mL (≈ 0.0201 µM).
Turning to `COc1ccc(CN2CCN(c3ccc(CN(C)CC(O)(Cn4cncn4)c4ccc(F)cc4F)cc3)CC2)cc1` (stereo not drawn), the MIC80 in experiment [1] worked out at 0.8 µg/mL (≈ 1.42 µM); in experiment [2], 0.8 µg/mL (≈ 1.42 µM); in experiment [3] it was 0.1 µg/mL (≈ 0.178 µM); in experiment [4] it was 0.2 µg/mL (≈ 0.355 µM); in experiment [5], 0.1 µg/mL (≈ 0.178 µM); in experiment [6], 3.2 µg/mL (≈ 5.69 µM). Moreover, in experiment [7], the MIC80 was found to be 0.5 µg/mL (≈ 0.889 µM).

Values taken from ChEMBL document CHEMBL6092162, “Identification of novel and potent triazoles targeting CYP51 for antifungal: Design, synthesis, and biological study” (Eur J Med Chem, 2024).
